Columns and labels:
[1] = Body weight after 21 days of administration; type: in vivo; conditions: WT and Ts65Dn mice, 50 mg/(kg body weight/day) i.p.
Procedure: All of the used mice were 3-month-old male mice administered continuously for 21 days, and then weighed.
The mice were administered continuously for 21 days and then weighed.

[2] = system: primary microglia of Dp16 mice; assay: Phagocytosis of myelin debris by primary microglia; type: cell-based; conditions: 0.6 mM, myelin debris added at 45 hours, staining at 48 hours
Source text: (§1) (A) Representative images of immunofluorescence labeled microglia marker Iba1, nuclear dye DAPI and myelin sheath debris (pHrodo is pre-labeled on myelin sheath), and the scale is 20 m. (B) Statistics of fluorescence intensity of myelin sheath debris in each Iba1-positive cell. Data represents the mean±standard error (SEM) and is statistically analyzed using One-way ANOVA. The ns represents no significant difference, i.e., p>0.05, ** represents p<0.01, *** represents p<0.001, **** represents p<0.0001.
(§2) Newborn wild-type (WT) mice and Dp16 Down's model mice were placed on ice for 5 min, immersed in pre-cooled 75% alcohol for 10 s, decapitated and stripped of the skull, and the whole brain was removed and placed in pre-cooled HBSS. Under a stereoscope, the vascular membrane of brain tissue was stripped and cut into pieces with tweezers, repeatedly blown and beaten evenly with a 5 ml pipette tip, resuspended in precooled HBSS, and screened with a 100-mesh cell sieve to remove cell debris. […] The cells were resuspended and counted. […] Myelin debris (1.2 μg/L) were added at 45 hours, and immunofluorescence staining was performed at 48 hours to label microglia marker Iba1, nuclear dye DAPI and myelin debris (pHrodo was labeled on the myelin sheath in advance), respectively, and then images were collected by laser confocal fluorescence microscopy.

Open-field test = type: in vivo, mice; conditions: 50 mg/(kg body weight/day) i.p., 21 days, open field 10 minutes
Procedure: After 21 days of continuous administration, 3-month-old male mice were subjected to the behavioral open-field test. (A) Average movement speed of mice in the open field. (B) Total movement distance of mice in the open field. (C) Total time for the mice moving in the center of the open field.
After continuous administration for 21 days, the animal behavior test was performed, in which the open-field test is a behavioral paradigm for evaluating the exercise ability and anxiety of experimental animals. In the open-field test, mice were placed in the center of the open field box (40 cm (L)×40 cm (W)×40 cm (H)), and Smart Video Tracking Software (Panlab, Harvard Apparatus) was used for data acquisition and analysis. Mice were allowed to explore freely in the open field for 10 minutes, and the Mean speed, Total distance and Time in center of mice were recorded.

Down's model mice Dp16 [3] = assay: Iba1 immunofluorescence of hippocampus (microgliosis), Dp16; type: in vivo; conditions: 30 mg/(kg body weight/day) intragastric, 21 days
Source text: (§3) (A) A representative map of immunofluorescence labeled microglia marker Iba1 in the DG region of mice hippocampus, and the scale is 100 m. (B) Statistical results of Iba1 positive cells in mice hippocampus. Data represents the mean±standard error (SEM) and is statistically analyzed using One-way ANOVA, with 8 mice in each group. **** represents p<0.0001.
(§4) The microglia marker Iba1 and nuclear dye DAPI were respectively labeled by immunofluorescence staining, and then the images were collected by laser confocal fluorescence microscopy.

Alzheimer's disease mice = conditions: by inhibiting the production of β-amyloid protein in the brain; cited from earlier work
[4] = cited from earlier work
[5] = system: primary microglia of Dp16 mice; assay: Phagocytosis of fluorescent spheres by primary microglia; type: cell-based; conditions: 0.6 mM, fluorescent spheres added at 45th hour, staining at 48th hour
Source text: as §1, with “fluorescent spheres,” for “myelin sheath debris (pHrodo is pre-labeled on myelin sheath),”, “10” for “20”, “fluorescent spheres” for “myelin sheath debris”, “p<0.01,” for “p<0.01, *** represents p<0.001,”
as §2, with “Fluorescent spheres (10000×, Fluoresbrite® microsphere)” for “Myelin debris (1.2 μg/L)”, “the 45th hour,” for “45 hours,”, “the 48th hour” for “48 hours”, “fluorescent spheres GFP,” for “myelin debris (pHrodo was labeled on the myelin sheath in advance),”

Down's model mice Dp16 [6] = assay: Iba1/CD68 immunofluorescence of hippocampus (microglial phagocytic function), Dp16; type: in vivo; conditions: 30 mg/(kg body weight/day) intragastric, 21 days
Source text: (A) A representative map of immunofluorescence labeled microglia marker Iba1 and lysosomal phagocytosis marker CD68 in the region of mice hippocampus, and the scale is 50 m. (B) The statistical results of the proportion of Iba1-positive and CD68-positive cells in the total Iba1-positive cells in the mice hippocampus. Data represents the mean±standard error (SEM) and is statistically analyzed using One-way ANOVA, with 8 mice in each group. The ns represents no significant difference, i.e., p>0.05, *** represents p<0.001, **** represents p<0.0001.
The microglia marker Iba1 and lysosomal phagocytosis markers CD68 were respectively labeled by immunofluorescence staining, and then the images were collected by laser confocal fluorescence microscopy.

Down's model mice Ts65Dn [7] = assay: LTP recording in brain slices (Schaffer collateral pathway CA3 to CA1); type: in vivo; conditions: 50 mg/(kg body weight/day) i.p., 21 days
Procedure: After 21 days of continuous administration, electrophysiological studies on brain slice were performed. After anesthesia, the mice were incubated in an ice-cooled artificial cerebrospinal fluid (ACSF) with oxygen. After slicing, the brain slices were incubated in ACSF saturated with oxygen at 32° C. for 1 H. The recording electrode was placed in the radiation layer of CA1 area of Schaffer collateral pathway, and the stimulating electrode was placed in CA3 area. Stimulation intensity was 30% of the maximum value of fEPSP. After the stable baseline of fEPSP was recorded for 20 mins, LTP was induced by high frequency stimulation (HFS) (2 strings of stimulation, each of which contained 100 stimulation pulses, and was separated by 30 seconds) and recorded for 60 mins.

Down's model mice Dp16 [8] = assay: Morris water maze test, Dp16; type: in vivo; conditions: 30 mg/(kg body weight/day) intragastric, 21 days
Source text: (§5) After 21 days of continuous administration, 3-month-old male mice were subjected to the Morris water maze test. (A) The latency for the mice to reach the platform during the 6-day water maze hidden platform training. (B) The average speed of swimming for the mice in the water maze of the platform test on day 7. (C) The latency for the mice to reach the area where the platform is located for the first time in the platform test on day 7. (D) The number of times for which the mice shuttled in the area where the platform is located in the platform test on day 7. (E) The swimming trajectory for the mice in the platform test on day 7. […] The ns represents no significant difference, i.e., p>0.05, * represents p<0.05, ** represents p<0.01, *** represents p<0.001.
After continuous administration for 21 days, learning and memory related animal behavior test Morris water maze test was performed. Smart Video Tracking Software (Panlab, Harvard Apparatus) was used for data acquisition and analysis. The Morris water maze is a circular water tank with a diameter of 90 cm, a height of 35 cm, and a water depth of 30 cm. The water temperature was maintained at 22° C. Different markers were placed in the visual field of mice (pool wall), and four water entry points (E, S, W, N) were marked on the pool wall so that the maze was divided into four quadrants. A platform with a diameter of 6 cm was installed in the ES quadrant, so that the water surface was 1 cm higher than the platform. Mice were trained twice a day and put into the water from E, S, W and N entry points facing the wall of the pool, respectively. The movement trajectory of the mice was captured by a camera, and the time from entering the water to climbing up the platform was recorded, that is, Escape latency. The system set a test time of 60 seconds, and the system automatically shut down after the mice climbed on the platform and stay for 10 seconds. […] The number of times of crossing in the original platform area (Target crossing) and the Latency of 1st entrance to target were recorded. […]

Down's model mice Ts65Dn [9] = assay: Iba1 immunofluorescence of hippocampus (microgliosis), Ts65Dn; type: in vivo; conditions: 50 mg/(kg body weight/day) i.p., 21 days
Source text: as §3, with “75” for “100”, “4” for “8”, “**” for “****”, “p<0.01 and *** represents p<0.001.” for “p<0.0001.”
as §4

Down's model mice Ts65Dn [10] = assay: Morris water maze test, Ts65Dn; type: in vivo; conditions: 50 mg/(kg body weight/day) i.p., 21 days
Source text: as §5, with “p>0.05,” for “p>0.05, * represents p<0.05,”, “p<0.001, **** represents p<0.0001.” for “p<0.001.”
After continuous administration for 21 days, learning and memory related animal behavior test Morris water maze test was performed. Smart Video Tracking Software (Panlab, Harvard Apparatus) was used for data acquisition and analysis. The Morris water maze is a circular water tank with a diameter of 90 cm, a height of 35 cm, and a water depth of 30 cm. The water temperature was maintained at 22° C. Different markers were placed in the visual field of mice (pool wall), and four water entry points (E, S, W, N) were marked on the pool wall so that the maze was divided into four quadrants. A platform with a diameter of 6 cm was installed in the ES quadrant, so that the water surface was 1 cm higher than the platform. Mice were trained twice a day and put into the water from E, S, W and N entry points facing the wall of the pool, respectively. The movement trajectory of the mice was captured by a camera, and the time from entering the water to climbing up the platform was recorded, that is, Escape latency. The system set a test time of 60 seconds, and the system automatically shut down after the mice climbed on the platform and stay for 10 seconds. […] The positioning navigation experiment last for 6 days, and on day 7, the platform was removed. Mice were placed on the opposite side of the platform to the wall of the pool, and the space exploration experiment was carried out. The number of times of crossing in the original platform area (Target crossing) and the Latency of 1st entrance to target were recorded.

[11] = 50 mg/(kg body weight/day) i.p., 21 days, plasma
Down's model mice Ts65Dn [12] = assay: Synapse number by transmission electron microscopy; type: in vivo; conditions: 50 mg/(kg body weight/day) i.p., 21 days
Source text: (A) A representative image of a transmission electron micrograph. Arrows indicate synaptic structures, and the scale is 1 m. (B) Statistics result of the number of synapses. (C) Statistics result of the number of presynaptic vesicles. (D) statistical result of the length of postsynaptic density (PSD). (E) Statistical results of the area of postsynaptic density (PSD). Data represents the mean±standard error (SEM) and is statistically analyzed using One-way ANOVA, with 4 mice in each group, and 38-42 fields of view are statistically analyzed respectively. The ns represents no significant difference, i.e., p>0.05, * represents p<0.05.
[…] The pieces were fixed with pre-cooled, fresh 2.5% glutaraldehyde fixative at 4° C. for more than 4 hours. At the end of fixation, the pieces were washed with PBS for 15 min for three times, then dehydrated, sectioned and prepared, and finally the images are collected by transmission electron microscopy.

CCCC(CCC)C(=O)O [VPA, sodium valproate]
body weight of mice [1]: does not affect
phagocytic function of myelin debris by primary microglia [2]: significantly enhances
anxiety-related behaviors (Time in center) (Open-field test): do not show anxiety-related behaviors
locomotor ability (Mean speed, Total distance) (Open-field test): no significant effects
number of microglia in the hippocampus (Iba1 positive cells) (Down's model mice Dp16 [3]): significantly reduces
cognitive function of Alzheimer's disease mice (Alzheimer's disease mice): reverse the cognitive function
binding to plasma proteins in blood ([4]; blood): mostly combined with plasma proteins
absorption by oral administration ([4]; oral administration): absorbed rapidly and completely
phagocytic function of fluorescent spheres by primary microglia [5]: significantly enhances
phagocytic function of hippocampal microglial cells (Iba1-positive and CD68-positive cells) (Down's model mice Dp16 [6]): significantly enhances
Long term potentiation (LTP) of Schaffer collateral pathway from hippocampal CA3 to CA1 (Down's model mice Ts65Dn [7]): significantly enhances
Latency of 1st entrance to target, day 7 (Down's model mice Dp16 [8]): reduces
number of times the mouse shuttled the area where the platform was located, day 7 (Down's model mice Dp16 [8]): significantly increases
spatial learning and memory deficits (Down's model mice Dp16 [8]): significantly reverse
number of microglia in the hippocampus (Iba1 positive cells) (Down's model mice Ts65Dn [9]): significantly reduces
Latency of 1st entrance to target, day 7 (Down's model mice Ts65Dn [10]): reduces
latency to search the platform (Escape latency), first 6 days of training (Down's model mice Ts65Dn [10]): significantly reduce
number of times the mouse shuttled the area where the platform was located (Target crossing), day 7 (Down's model mice Ts65Dn [10]): significantly increases
spatial learning and memory deficits (Down's model mice Ts65Dn [10]): significantly reverse
toxic effects on mice (blood biochemical analysis) [11]: no significant toxic effects
number of synapses in the hippocampal neurons (Down's model mice Ts65Dn [12]): significantly increases
